# ChEMBL document CHEMBL5335774 (Eur J Med Chem, 2023)
# Tests used:
# Procathepsin L = Procathepsin L (Homo sapiens, UniProt P07711)
# [1] = biological target: T1, Replicase polyprotein 1ab (Severe acute respiratory syndrome coronavirus 2, UniProt P0DTD1)
# [2] = biological target: T1, Replicase polyprotein 1ab; remark: listed apart in the source
# Vero = test: Cytotoxicity against green monkey Vero cells; type: toxicity, cell-based; conditions: chlorocebus sabaeus
# Replicase polyprotein 1a = Replicase polyprotein 1a (Severe acute respiratory syndrome-related coronavirus, UniProt P0C6U8)
# SARS-CoV-2 = test: microbe, parasite or virus in culture; conditions: Severe acute respiratory syndrome coronavirus 2, Vero, 16 h
# [3] = biological target: Replicase polyprotein 1ab (Severe acute respiratory syndrome coronavirus 2) (UniProt P0DTD1); conditions: dose 40.0 µM, time 30.0 min
# [4] = biological target: T1, Replicase polyprotein 1ab; remark: listed apart in the source
# [5] = biological target: Replicase polyprotein 1ab (Severe acute respiratory syndrome coronavirus 2) (UniProt P0DTD1); conditions: time 70.0 min
# Sequence of Procathepsin L (P07711 whole entry): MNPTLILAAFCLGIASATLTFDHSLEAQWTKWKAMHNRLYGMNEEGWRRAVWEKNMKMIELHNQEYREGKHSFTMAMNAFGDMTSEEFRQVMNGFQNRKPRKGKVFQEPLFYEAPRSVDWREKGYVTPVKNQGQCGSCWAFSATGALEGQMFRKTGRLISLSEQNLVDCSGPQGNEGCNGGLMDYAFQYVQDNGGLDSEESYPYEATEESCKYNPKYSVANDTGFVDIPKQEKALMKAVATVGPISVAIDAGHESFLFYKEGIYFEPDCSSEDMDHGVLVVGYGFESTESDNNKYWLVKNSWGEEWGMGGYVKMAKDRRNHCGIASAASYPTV
smiles,measurement,setting,value
CC(C)C[C@H](NC(=O)OCc1ccccc1)C(=O)N[C@@H](CC1CCNC1=O)C(O)S(=O)(=O)O (some centres not stated),IC50,Procathepsin L; read-out: pIC50 (converted),0.692 nM
Cc1cccc2nc(CNC(=S)NCc3cccnc3)cn12,pIC50,[1],< 4
same,IC50,[1]; read-out: IC50,> 100000 nM
same,IC50,[2]; read-out: IC50,35000 nM
S=C(NCc1cccnc1)SCc1ccccc1,IC50,[1]; read-out: IC50,9360 nM
same,IC50,[2]; read-out: IC50,23 nM
S=C(NCc1cccnc1)OCc1ccccc1,pIC50,[1],< 4
same,IC50,[1]; read-out: IC50,> 100000 nM
same,IC50,[2]; read-out: IC50,> 100000 nM
same,IC50,[2]; read-out: pIC50 (converted),> 100000 nM
S=C([S-])NCc1cccnc1.[K+],IC50,[1]; read-out: IC50,1360 nM
same,IC50,[2]; read-out: pIC50 (converted),26.9 nM
same,Activity,Vero,Toxic
same,IC50,Replicase polyprotein 1a,165 nM
same,IC50,Procathepsin L; read-out: IC50,42800 nM
Cc1cccc2nc(CSC(=S)NCc3cccnc3)cn12,IC50,[1]; read-out: IC50,1460 nM
same,IC50,[1]; read-out: pIC50 (converted),1410 nM
same,IC50,[2]; read-out: IC50,21 nM
same,IC50,SARS-CoV-2,1060 nM
same,ΔTm,[3],14.2 °C
same,Activity,Vero,Non-Toxic
same,IC50,Replicase polyprotein 1a,383 nM
same,IC50,[4],8 nM
same,inhibition,[5],80%
same,IC50,Procathepsin L; read-out: IC50,122000 nM
CCSC(=S)NCc1cccnc1,IC50,[1]; read-out: IC50,22400 nM
same,IC50,[2]; read-out: IC50,178 nM
